Source: PubChem BioAssay (NCI)
“And” between values parts separate entries of the source, which are not always exact repeats. Equal entries are not always repeated.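 The compound was tested at five concentrations on cells cultured in 96-well plates, with a 48-hour exposure period. Abbreviation: GI50, concentration required for 50% inhibition of growth. TGI denotes the concentration required for complete inhibition of growth.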

Tests used:
Assay in all cases: NCI tumour cell line growth inhibition, 48 h
CCRF-CEM leukemia = system: CCRF-CEM leukemia
EKVX NSCLC = system: EKVX NSCLC
LOX IMVI melanoma = system: LOX IMVI melanoma
MDA-MB-231 breast = system: MDA-MB-231 breast
NCI/ADR-RES ovarian = system: NCI/ADR-RES ovarian
SK-MEL-5 melanoma = system: SK-MEL-5 melanoma
SK-OV-3 ovarian = system: SK-OV-3 ovarian
T-47D breast = system: T-47D breast
U251 CNS = system: U251 CNS
UACC-62 melanoma = system: UACC-62 melanoma

SMILES | TGI (CCRF-CEM leukemia) | TGI (EKVX NSCLC) | TGI (LOX IMVI melanoma) | TGI (MDA-MB-231 breast) | TGI (NCI/ADR-RES ovarian) | TGI (SK-MEL-5 melanoma) | TGI (SK-OV-3 ovarian) | TGI (T-47D breast) | TGI (U251 CNS) | TGI (UACC-62 melanoma) | GI50 (CCRF-CEM leukemia) | GI50 (EKVX NSCLC) | GI50 (LOX IMVI melanoma) | GI50 (MDA-MB-231 breast) | GI50 (NCI/ADR-RES ovarian) | GI50 (SK-MEL-5 melanoma) | GI50 (SK-OV-3 ovarian) | GI50 (T-47D breast) | GI50 (U251 CNS) | GI50 (UACC-62 melanoma)
Oc1ccc(C=Nc2ccccc2O)cc1 | > 100 µM | > 100 µM | > 100 µM | > 100 µM | > 100 µM | 62.7 µM | > 100 µM | > 100 µM | > 100 µM | > 100 µM | – | – | – | – | – | – | – | – | – | –
CNC(=O)c1c(C)oc2cc(Oc3ncnc4cc(OC)c(OC)cc34)ccc12 | > 100 µM | > 100 µM | > 100 µM | > 100 µM | > 100 µM | > 100 µM | > 100 µM | > 100 µM | > 100 µM | > 100 µM | > 100 µM | > 100 µM | > 100 µM | > 100 µM | > 100 µM | > 100 µM | > 100 µM | > 100 µM | 5.51 µM | > 100 µM
COc1c/c(=C2\C=c3ccccc3=N2)[nH]/c1=C\c1[nH]c(C)cc1C | 6.64 µM | > 94.4 µM | – | 3.87 µM | > 55.3 µM | 0.0352 µM | > 88.7 µM | 6.05 µM | 6.28 µM | 0.0268 µM | < 0.01 µM | 0.601 µM | < 0.01 µM | 0.0117 µM | 0.17 µM | < 0.0105 µM | 1.54 µM | < 0.0211 µM | < 0.0337 µM | 0.0134 µM
CC[C@H](C)[C@H](NC(=O)[C@H]1CCCCN1C)C(=O)N(C)[C@H](C[C@@H](OC(C)=O)c1cccc(C(=O)N[C@@H](Cc2ccccc2)C[C@H](C)C(=O)OC)n1)C(C)C | > 25 µM | > 25 µM | > 25 µM | 0.85 µM | > 25 µM | 0.0382 µM and 0.0333 µM | > 25 µM | – | > 25 µM | > 25 µM | 0.00495 µM and 0.0025 µM | 0.00838 µM and 0.00863 µM | 0.0067 µM and 0.0025 µM | 0.00427 µM and 0.00267 µM | 0.175 µM and 0.276 µM | 0.00107 µM and 0.0025 µM | 0.00308 µM and 0.00314 µM | 0.000953 µM | 0.00408 µM and 0.00381 µM | 0.000589 µM and 0.0025 µM
COc1ccc(/C=C\c2cc(OC)c(OC)c(OC)c2)cc1OCC(=O)Nc1nc2ccc(F)cc2s1 | > 100 µM | > 100 µM | > 100 µM | > 100 µM | > 100 µM | 8.96 µM | > 100 µM | 68.5 µM | > 100 µM | > 100 µM | 3.7 µM | 5.72 µM | 3.23 µM | 9.34 µM | 2.55 µM | 1.76 µM | 8 µM | 3.39 µM | 4.33 µM | 4.05 µM
C[C@@H](Oc1cc(-n2cnc3ccc(OC4CCN(C)CC4)cc32)sc1C(N)=O)c1ccccc1Cl | 4.19 µM | – | 3.69 µM | 0.53 µM | 3.58 µM | 0.777 µM | 2.8 µM | 8.73 µM | 4.13 µM | 4.62 µM | 0.00953 µM | – | 0.0146 µM | 0.0225 µM | 0.0955 µM | 0.0306 µM | 0.0216 µM | 3.57 µM | 0.0155 µM | 0.033 µM
Cc1cc2nc(NCCN)n(Cc3ccc(F)c(Cl)c3)c2cc1C | 29.3 µM | 28.4 µM | 14.5 µM | 9.44 µM | 32.1 µM | 27.6 µM | 30.8 µM | 21.7 µM | 25.1 µM | 27.2 µM | 12.7 µM | 13.8 µM | 3.73 µM | 2.68 µM | 16.3 µM | 14.4 µM | 16.9 µM | 6.16 µM | 12.3 µM | 13.3 µM
Clc1c(Cl)[n+](Cc2ccc3ccccc3c2)cn1Cc1ccc2ccccc2c1 | 7.06 µM | 4.98 µM | 2.52 µM | 2.93 µM | 38 µM | 2.39 µM | 3.75 µM | 2.09 µM | 2.94 µM | 2.45 µM | 2.89 µM | 1.83 µM | 1.26 µM | 1.42 µM | 16.3 µM | 1.13 µM | 1.39 µM | 0.504 µM | 1.53 µM | 1.13 µM
CCc1cccc(C(C)C)c1NC(=O)C(=O)C1C(=O)Nc2ccccc2S1=O (stereo not given) | > 100 µM | > 100 µM | > 100 µM | > 100 µM | > 100 µM | > 100 µM | > 100 µM | > 100 µM | > 100 µM | > 100 µM | – | – | – | – | – | – | – | – | – | –
O=C1Nc2c(ccc(Cl)c2Cl)/C1=C/c1cc(Br)c(O)c(Br)c1 | > 65.4 µM | 97.3 µM | 63.6 µM | 49.6 µM | > 24.1 µM | 10.2 µM | 30.4 µM | 12.3 µM | 43.1 µM | 13.3 µM | 3.95 µM | 4.54 µM | 6.94 µM | 6.81 µM | 2.95 µM | 2.6 µM | 4.88 µM | 2.99 µM | 6.42 µM | 2.49 µM
O=C(O)c1cc(-c2ccc3cc4c(cc3c2)OCO4)nc2ccccc12 | 35.4 µM | 83 µM | > 100 µM | > 100 µM | > 100 µM | > 100 µM | > 100 µM | > 100 µM | > 100 µM | > 100 µM | – | – | – | – | – | – | – | – | – | –
Nc1nc(/C=C\c2ccc([N+](=O)[O-])s2)nc(N2CCN(c3ccccc3)CC2)n1 | 79.1 µM | > 100 µM | 29.1 µM | 29.6 µM | 53 µM | – | 62.5 µM | 43.2 µM | 56 µM | 30.8 µM | 29.3 µM | 32.2 µM | 15.7 µM | 13 µM | 21.3 µM | 0.157 µM | 30.7 µM | 14.2 µM | 21.6 µM | 13.6 µM
COc1ccc2c(c1)C(=O)c1c-2n(CCCN(C)C)c(=O)c2ccccc12 | 0.629 µM | 8.45 µM | 1.01 µM | 12.9 µM | 9.66 µM | 0.406 µM | 3.14 µM | 3.56 µM | 3.68 µM | 2.5 µM | 0.077 µM | 0.645 µM | 0.162 µM | 1.86 µM | 0.349 µM | 0.123 µM | 0.382 µM | 0.309 µM | 0.197 µM | 0.922 µM
